Data: PubChem BioAssay (NCI)
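Each compound was tested at five concentrations against cells in 96-well plates for 48 hours. TGI denotes the concentration required for complete inhibition of growth.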

Experiments:
Test in all cases: inhibition of tumour cell growth, NCI panel, 48 h
BT-549 breast = tested on: BT-549 breast
COLO 205 colon = tested on: COLO 205 colon
DU-145 prostate = tested on: DU-145 prostate
EKVX NSCLC = tested on: EKVX NSCLC
HCC-2998 colon = tested on: HCC-2998 colon
HCT-15 colon = tested on: HCT-15 colon
HL-60(TB) leukemia = tested on: HL-60(TB) leukemia
HOP-92 NSCLC = tested on: HOP-92 NSCLC
HS 578T breast = tested on: HS 578T breast
K-562 leukemia = tested on: K-562 leukemia
M14 melanoma = tested on: M14 melanoma
NCI-H460 lung = tested on: NCI-H460 lung
OVCAR-4 ovarian = tested on: OVCAR-4 ovarian
RPMI-8226 leukemia = tested on: RPMI-8226 leukemia
RXF 393 renal = tested on: RXF 393 renal
SF-268 CNS = tested on: SF-268 CNS
SF-295 CNS = tested on: SF-295 CNS
SK-MEL-5 melanoma = tested on: SK-MEL-5 melanoma
OVCAR-3 ovarian = tested on: OVCAR-3 ovarian

Structure (SMILES) | TGI (BT-549 breast) | TGI (COLO 205 colon) | TGI (DU-145 prostate) | TGI (EKVX NSCLC) | TGI (HCC-2998 colon) | TGI (HCT-15 colon) | TGI (HL-60(TB) leukemia) | TGI (HOP-92 NSCLC) | TGI (HS 578T breast) | TGI (K-562 leukemia) | TGI (M14 melanoma) | TGI (NCI-H460 lung) | TGI (OVCAR-4 ovarian) | TGI (RPMI-8226 leukemia) | TGI (RXF 393 renal) | TGI (SF-268 CNS) | TGI (SF-295 CNS) | TGI (SK-MEL-5 melanoma) | TGI (OVCAR-3 ovarian)
COC(=O)[C@H](Cc1ccccc1)NP(=O)(OCCC#N)OCC1OC(n2cc(C)c(=O)[nH]c2=O)CC1N=[N+]=[N-] (stereo not given in full) | > 100 µM | > 100 µM | > 100 µM | > 100 µM | > 100 µM | > 100 µM | > 100 µM | > 100 µM | > 100 µM | > 100 µM | > 100 µM | > 100 µM | > 100 µM | > 100 µM | > 100 µM | > 100 µM | > 100 µM | > 100 µM | –
COC(=O)C(Cc1ccccc1)NP(=O)(O)OCC1OC(n2cc(Br)c(=O)[nH]c2=O)CC1O (stereo not given) | > 100 µM | > 100 µM | > 100 µM | > 100 µM | > 100 µM | > 100 µM | > 100 µM | > 100 µM | > 100 µM | > 100 µM | > 100 µM | > 100 µM | > 100 µM | – | > 100 µM | > 100 µM | > 100 µM | > 100 µM | > 100 µM
COc1ccc(OC)c(-c2nc3n(c2/C=C2/C(=O)Nc4ccccc42)CCS3)c1 | > 100 µM | > 100 µM | > 100 µM | > 100 µM | – | > 100 µM | > 100 µM | > 100 µM | > 100 µM | > 100 µM | > 100 µM | > 100 µM | > 100 µM | > 100 µM | 81.3 µM | > 100 µM | > 100 µM | > 100 µM | > 100 µM
COC(=O)C1=C(C)NC(C)=C(C(=O)OC)C1c1ccccc1NO | > 100 µM | > 100 µM | > 100 µM | > 100 µM | > 100 µM | > 100 µM | > 100 µM | > 100 µM | > 100 µM | > 100 µM | > 100 µM | > 100 µM | > 100 µM | > 100 µM | > 100 µM | > 100 µM | > 100 µM | > 100 µM | > 100 µM
O=C1C(N2CCN(c3ccccn3)CC2)=C(Cl)C(=O)c2ncccc21 | > 10 µM | 3.49 µM | > 10 µM | > 10 µM | > 6.52 µM | 4.06 µM | 0.906 µM | 2.94 µM | > 10 µM | > 10 µM | 3.82 µM | > 10 µM | 1.95 µM | 1.87 µM | 3.56 µM | > 10 µM | > 10 µM | 3.27 µM | 3.95 µM
Cc1c(C)c(C)c(-n2c(=O)n(C)c(=O)n2-n2c(=O)n(C)c(=O)n2-c2c(C)c(C)c(C)c(C)c2C)c(C)c1C | > 100 µM | > 100 µM | > 100 µM | > 100 µM | > 100 µM | > 100 µM | 68.7 µM | > 100 µM | > 100 µM | > 100 µM | > 100 µM | > 100 µM | > 100 µM | > 100 µM | > 100 µM | > 100 µM | – | > 100 µM | > 100 µM
CN(CCNC(=O)c1nn(-c2ccccc2)c2c1Cc1ccccc1-2)CCNC(=O)c1nn(-c2ccccc2)c2c1Cc1ccccc1-2 | 18.7 µM | 3.32 µM | 6.75 µM | 9.65 µM | 3.13 µM | 3.67 µM | 2.91 µM | 3.01 µM | 3.77 µM | 6.59 µM | 3.27 µM | 3.15 µM | 4.48 µM | 14.1 µM | 3.07 µM | 4.74 µM | 3.34 µM | 3.38 µM | 3.52 µM
CN(C)CCCNC(=O)c1c(O)c2ccccc2[nH]c1=O | > 100 µM | > 100 µM | > 100 µM | > 100 µM | > 100 µM | > 100 µM | > 100 µM | > 100 µM | > 100 µM | > 100 µM | – | > 100 µM | > 100 µM | > 100 µM | > 100 µM | > 100 µM | > 100 µM | > 100 µM | > 100 µM
COc1cc(C=O)cc(/C=N/n2c3ccccc3c3ccccc32)c1O | 9.7 µM | 52.1 µM | > 100 µM | > 100 µM | 67.4 µM | > 100 µM | > 100 µM | 9.58 µM | > 100 µM | 67.7 µM | > 100 µM | > 100 µM | > 100 µM | 46.2 µM | 99.7 µM | > 100 µM | 18.6 µM | – | > 100 µM
